Assay results taken from ChEMBL document CHEMBL3600384, “Highly potent artemisinin-derived dimers and trimers: Synthesis and evaluation of their antimalarial, antileukemia and antiviral activities” (Bioorg Med Chem, 2015).
Active and inactive are the calls of the source. The calls are words filed in the database; no cut-off is given here.

Columns and labels:
CCRF-CEM [1] = assay: Cytotoxicity against human CCRF-CEM cells assessed as cell viability after 72 hrs by resazurin assay; type: functional, cell-based
CCRF-CEM [2] = assay: Resistance index, ratio of IC50 for human CEM/ADR5000 cells to IC50 for human CCRF-CEM cells; type: functional
[3] = Cytotoxicity against human CEM/ADR5000 cells assessed as cell viability after 72 hrs by resazurin assay; type: functional, cell-based; conditions: ADR5000, 72 h
Human betaherpesvirus 5 = assay: Antiviral activity against Human cytomegalovirus AD169 expressing GFP infected in HFF assessed as inhibition of viral replication after 7 days; type: functional, organism-based
Plasmodium falciparum [4] = assay: Antimalarial activity against Plasmodium falciparum 3D7 infected in human erythrocytes assessed as parasite growth inhibition after 72 hrs by SYBR Green I assay; type: functional, organism-based; conditions: 3D7, 72 h
Plasmodium falciparum [5] = assay: Antimalarial activity against Plasmodium falciparum NF54 infected in human erythrocytes after 48 hrs by [3H]hypoxanthine incorporation assay; type: functional, organism-based
[6] = Potency index, ratio of doxorubicin IC50 to compound IC50 for human CEM/ADR5000 cells; type: functional
HFF [7] = assay: Cytotoxicity against HFF up to 10 uM by fluorescence microscopic analysis; type: cell-based; conditions: human
HFF [8] = assay: Cytotoxicity against HFF up to 10 uM by light microscopic analysis; type: cell-based; conditions: human
ADR5000 = assay: Cytotoxicity against human CEM/ADR5000 cells assessed as cell viability at 400 uM after 72 hrs by resazurin assay; type: functional, cell-based
[9] = Stability of the compound up to 56 degC; type: physicochemical
[10] = Stability of the compound in freezing/thawing condition; type: physicochemical
[11] = Human betaherpesvirus 5, AD169, 168 h, read-out: IC50

SMILES	IC50 (CCRF-CEM [1])	Ratio IC50 (CCRF-CEM [2])	IC50 [3]	IC50 (Human betaherpesvirus 5; [11])	IC50 (Plasmodium falciparum [4])	further results
COc1cccc2c1C(=O)c1c(O)c3c(c(O)c1C2=O)C[C@@](O)(C(=O)CO)C[C@@H]3O[C@H]1C[C@H](N)[C@H](O)[C@H](C)O1 [DOXORUBICIN]	3 nM	536.67	1610 nM			
C[C@H]1[C@H](OC(=O)CCC(=O)O)O[C@@H]2O[C@@]3(C)CC[C@H]4[C@H](C)CC[C@@H]1[C@@]24OO3 [ARTESUNATE]	70 nM	2.71	190 nM	3800 nM	9 nM	
C[C@H]1[C@H](OC(=O)CCC(=O)NCC(O)CNC(=O)CCC(=O)O[C@@H]2O[C@@H]3O[C@@]4(C)CC[C@H]5[C@H](C)CC[C@@H]([C@H]2C)[C@@]35OO4)O[C@@H]2O[C@@]3(C)CC[C@H]4[C@H](C)CC[C@@H]1[C@@]24OO3 (stereo not given in full)				2070 nM		
C[C@H]1[C@@H](CC(CO)C[C@H]2O[C@@H]3O[C@@]4(C)CC[C@H]5[C@H](C)CC[C@@H]([C@H]2C)[C@@]35OO4)O[C@@H]2O[C@@]3(C)CC[C@H]4[C@H](C)CC[C@@H]1[C@@]24OO3 (stereo not given in full)	20 nM	2.5	50 nM		1.1 nM	IC50 (Plasmodium falciparum [5]): 0.87 nM
Nc1nc2c(ncn2COC(CO)CO)c(=O)[nH]1 [GANCICLOVIR]				2600 nM		
C[C@H]1[C@H](OC(=O)CCC(=O)NCCCCCCCCNC(=O)CCC(=O)O[C@@H]2O[C@@H]3O[C@@]4(C)CC[C@H]5[C@H](C)CC[C@@H]([C@H]2C)[C@@]35OO4)O[C@@H]2O[C@@]3(C)CC[C@H]4[C@H](C)CC[C@@H]1[C@@]24OO3				> 10000 nM		
C[C@H]1[C@@H](O)O[C@@H]2O[C@@]3(C)CC[C@H]4[C@H](C)CC[C@@H]1[C@@]24OO3 [ARTENIMOL]	90 nM	3	270 nM	> 10000 nM	2.5 nM	
C[C@@H]1CC[C@H]2[C@@H](C)C(=O)O[C@@H]3O[C@@]4(C)CC[C@@H]1[C@]32OO4 [ARTEMISININ]		0.73		> 10000 nM		
C[C@H]1[C@@H](OCC(C[C@H]2O[C@@H]3O[C@@]4(C)CC[C@H]5[C@H](C)CC[C@@H]([C@H]2C)[C@@]35OO4)C[C@H]2O[C@@H]3O[C@@]4(C)CC[C@H]5[C@H](C)CC[C@@H]([C@H]2C)[C@@]35OO4)O[C@@H]2O[C@@]3(C)CC[C@H]4[C@H](C)CC[C@@H]1[C@@]24OO3	2 nM	245	490 nM		12.8 nM	Ratio IC50 [6]: 3; IC50 (Human betaherpesvirus 5): ND(toxic); Activity (HFF [7]): Non-toxic; Activity (HFF [8]): Non-toxic
C[C@H]1[C@@H](CCCO)O[C@@H]2O[C@@]3(C)CC[C@H]4[C@H](C)CC[C@@H]1[C@@]24OO3	174000 nM				11.6 nM	Activity (ADR5000): inactive
C[C@H]1[C@H](OC(=O)CCC(=O)O[C@@H]2O[C@@H]3O[C@@]4(C)CC[C@H]5[C@H](C)CC[C@@H]([C@H]2C)[C@@]35OO4)O[C@@H]2O[C@@]3(C)CC[C@H]4[C@H](C)CC[C@@H]1[C@@]24OO3	2750 nM	1.01	2790 nM	1040 nM	2.6 nM	
C[C@H]1[C@H](OC(=O)CCC(=O)OCC(C[C@H]2O[C@@H]3O[C@@]4(C)CC[C@H]5[C@H](C)CC[C@@H]([C@H]2C)[C@@]35OO4)C[C@H]2O[C@@H]3O[C@@]4(C)CC[C@H]5[C@H](C)CC[C@@H]([C@H]2C)[C@@]35OO4)O[C@@H]2O[C@@]3(C)CC[C@H]4[C@H](C)CC[C@@H]1[C@@]24OO3	2 nM	100	200 nM	40 nM	12.8 nM	Ratio IC50 [6]: 3; Activity (HFF [7]): Non-toxic; Activity (HFF [8]): Non-toxic; Stability [9]: Stable; Stability [10]: Stable
C[C@H]1[C@@H](CCCOC(=O)C[C@H]2O[C@@H]3O[C@@]4(C)CC[C@H]5[C@H](C)CC[C@@H]([C@H]2C)[C@@]35OO4)O[C@@H]2O[C@@]3(C)CC[C@H]4[C@H](C)CC[C@@H]1[C@@]24OO3	90 nM	2.22	200 nM	310 nM	2.6 nM	Ratio IC50 [6]: 3
